Data: patent US4455419A, “2'-Modified kanamycins and production thereof” (Zaidan Hojin Biseibutsu Kagaku Kenkyu Kai, priority 1981, dated 1984)
In brackets after ≈: the same amount, converted by molar mass. Where two headings read alike, the source gives them in different places.

Experiments:
Assay in all cases: Minimum inhibitory concentration, standard serial dilution method
Format in all cases: cell-based
Providencia morgani Kono = settings: read-out: Minimum Inhibitory Concentrations
Text: (§1) For comparison purpose, the minimum inhibitory concentrations (mcg/ml) of the parent compound, kanamycin A are also shown in Table II.

[1] = tested on: Staphylococcus epidermidis 109; settings: read-out: Minimum Inhibitory Concentrations
Text: as §1

[2] = tested on: Escherichia coli JR66/W677 (A-20683); settings: read-out: Minimum Inhibitory Concentrations
Text: as §1

[3] = tested on: Klebsiella pneumoniae PCI-602; settings: read-out: Minimum Inhibitory Concentrations
Text: as §1

[4] = tested on: Staphylococcus aureus Rosenbach FDA 209-OJC-1; settings: read-out: Minimum Inhibitory Concentrations
Text: as §1

Escherichia coli No. 29 = settings: read-out: Minimum Inhibitory Concentrations
Text: as §1

[5] = tested on: Pseudomonas aeruginosa E-2 IAM-1007; settings: read-out: Minimum Inhibitory Concentrations
Text: as §1

[6] = tested on: Pseudomonas aeruginosa IAM-1007; settings: read-out: Minimum Inhibitory Concentrations
Text: as §1

[7] = tested on: Serratia marcescens No. 1; settings: read-out: Minimum Inhibitory Concentrations
Text: as §1

[8] = tested on: Salmonela typhimlium LT-2; settings: 24 h, read-out: Minimum Inhibitory Concentrations
Text: as §1

[9] = Escherichia coli JR66/W677 (A-20683), nutrient agar, 37° C., 24 hours
[10] = Escherichia coli No. 29, nutrient agar, 37° C., 24 hours
[11] = Staphylococcus epidermidis, 109, 24 h
[12] = Klebsiella pneumoniae, PCI602, 24 h
[13] = Staphylococcus aureus, FDA209, 24 h
[14] = Pseudomonas aeruginosa, IAM1007, 24 h
[15] = Serratia marcescens, NO.1, 24 h

SMILES: NC[C@H]1O[C@H](O[C@H]2[C@H](O)[C@@H](O[C@H]3O[C@H](CO)[C@@H](O)[C@H](N)[C@H]3O)[C@H](N)C[C@@H]2N)C[C@@H](O)[C@@H]1O [2'-Deoxykanamycin A, 2'-deoxykanamycin A]
- MIC (Providencia morgani Kono; Providencia morgani Kono, nutrient agar, 37° C., 24 hours): 0.78 µg/mL (≈ 1.66 µM)
- MIC ([1]; Staphylococcus epidermidis 109, nutrient agar, 37° C., 24 hours): 0.2 µg/mL (≈ 0.427 µM)
- MIC [2, 9]: 50 µg/mL (≈ 107 µM)
- MIC ([3]; PCI602, Klebsiella pneumoniae PCI-602, nutrient agar, 37° C., 24 hours): 0.78 µg/mL (≈ 1.66 µM)
- MIC ([4]; FDA209, Staphylococcus aureus Rosenbach FDA 209-OJC-1, nutrient agar, 37° C., 24 hours): 0.05 µg/mL (≈ 0.107 µM)
- MIC (Escherichia coli No. 29; [10]): 0.39 µg/mL (≈ 0.832 µM)
- MIC ([5]; IAM1007, Pseudomonas aeruginosa E-2 IAM-1007, nutrient agar, 37° C., 24 hours): 6.25 µg/mL (≈ 13.3 µM)
- MIC ([6]; IAM1007, Pseudomonas aeruginosa IAM-1007, nutrient agar, 37° C., 24 hours): 1.56 µg/mL (≈ 3.33 µM)
- MIC ([7]; Serratia marcescens No. 1, nutrient agar, 37° C., 24 hours): 0.78 µg/mL (≈ 1.66 µM)
- MIC [8]: 0.78 µg/mL (≈ 1.66 µM)

SMILES: NC[C@H]1O[C@H](O[C@H]2[C@H](O)[C@@H](O[C@H]3O[C@H](CO)[C@@H](O)[C@H](N)[C@H]3O)[C@H](N)C[C@@H]2N)[C@@H](O)[C@@H](O)[C@@H]1O [2'-Epikanamycin A, 2'-epikanamycin A]
- MIC (Providencia morgani Kono; Providencia, 24 h): 6.25 µg/mL (≈ 12.9 µM)
- MIC [1, 11]: 25 µg/mL (≈ 51.6 µM)
- MIC [2, 9]: > 100 µg/mL
- MIC [3, 12]: 6.25 µg/mL (≈ 12.9 µM)
- MIC [4, 13]: 0.39 µg/mL (≈ 0.805 µM)
- MIC (Escherichia coli No. 29; Escherichia coli, NO.29, 24 h): 6.25 µg/mL (≈ 12.9 µM)
- MIC [5, 14]: > 100 µg/mL
- MIC [6, 14]: 50 µg/mL (≈ 103 µM)
- MIC [7, 15]: 12.5 µg/mL (≈ 25.8 µM)
- MIC [8]: 6.25 µg/mL (≈ 12.9 µM)

SMILES: NC[C@H]1O[C@H](O[C@H]2[C@H](O)[C@@H](O[C@H]3O[C@H](CO)[C@@H](O)[C@H](N)[C@H]3O)[C@H](N)C[C@@H]2N)[C@@H](N)[C@@H](O)[C@@H]1O [2'-Epikanamycin B, 2'-epikanamycin B]
- MIC (Providencia morgani Kono; Providencia, 24 h): 50 µg/mL (≈ 103 µM)
- MIC [1, 11]: 50 µg/mL (≈ 103 µM)
- MIC ([2]; Escherichia coli, 24 h): > 100 µg/mL
- MIC [3, 12]: 50 µg/mL (≈ 103 µM)
- MIC [4, 13]: 1.56 µg/mL (≈ 3.23 µM)
- MIC (Escherichia coli No. 29; Escherichia coli, NO.29, 24 h): 50 µg/mL (≈ 103 µM)
- MIC [5, 14]: > 100 µg/mL
- MIC [6, 14]: > 100 µg/mL
- MIC [7, 15]: 100 µg/mL (≈ 207 µM)
- MIC [8]: 50 µg/mL (≈ 103 µM)

SMILES: NC[C@H]1O[C@H](O[C@H]2[C@H](O)[C@@H](O[C@H]3O[C@H](CO)[C@@H](O)[C@H](N)[C@H]3O)[C@H](N)C[C@@H]2N)[C@H](O)[C@@H](O)[C@@H]1O [Kanamycin A, kanamycin A, reference compound]
- MIC (Providencia morgani Kono; Providencia, 24 h): 3.13 µg/mL (≈ 6.46 µM)
- MIC [1, 11]: 3.13 µg/mL (≈ 6.46 µM)
- MIC [2, 9]: > 100 µg/mL
- MIC [3, 12]: 1.56 µg/mL (≈ 3.22 µM)
- MIC [4, 13]: 0.1 µg/mL (≈ 0.206 µM)
- MIC (Escherichia coli No. 29; [10]): 0.78 µg/mL (≈ 1.61 µM)
- MIC [5, 14]: 50 µg/mL (≈ 103 µM)
- MIC [6, 14]: 12.5 µg/mL (≈ 25.8 µM)
- MIC [7, 15]: 3.13 µg/mL (≈ 6.46 µM)
- MIC [8]: 1.56 µg/mL (≈ 3.22 µM)
